Assay results from PMC11726016 (Cancer Discovery, 2024).

Legend:
[1] = test system: endogenous MTAP WT and MTAP-deleted cancer cell lines; experiment: Viability in a panel of endogenous MTAP WT and MTAP-deleted cancer cells; format: cell-based, human; details: 6 days
[2] = test system: DOHH-2 tumors; experiment: DOHH-2 tumor study, AM-9747 vs LLY-283; format: in vivo, mouse; details: LLY-283 30 mg/kg, AM-9747 100 mg/kg PO QD
[3] = test system: bone marrow progenitors and circulating blood cells; experiment: Bone marrow progenitor populations and circulating blood cells; format: in vivo, mouse; details: DOHH-2 study; LLY-283 30 mg/kg, AM-9747 100 mg/kg PO QD
[4] = test system: SDMA and γH2AX in bone marrow, blood and DOHH-2 tumor; experiment: Pharmacodynamics and MOA in vivo assay; details: DOHH-2 study, Day 11; LLY-283 30 mg/kg, AM-9747 100 mg/kg PO QD

SMILES: Nc1ncnc2c1ccn2[C@@H]1O[C@H]([C@H](O)c2ccccc2)[C@@H](O)[C@H]1O [LLY-283]
- relation of MTAP status to sensitivity in the cell panel [1]: MTAP status did not track closely with sensitivity
- tumor-free mice [2]: 2/10
- circulating blood cells (RBC, reticulocytes, platelets) [3]: highly substantial reductions in red blood cells (RBC), reticulocytes, and platelets
- megakaryocytic and erythroid progenitors (MEP) population in bone marrow [3]: substantial reduction
- Blood SDMA decrease [4]: 79%
- Bone marrow SDMA decrease [4]: 71%
- Tumor SDMA decrease [4]: 21%
